# Values of other authors in patent publication US11026985B2, “Methods for removing contaminants from plant-derived pharmaceuticals” (priority 2018, dated 2021).
# Tested on: not given
# Settings: permissible limit in Cannabis, State of Oregon
row,Molecule,Action Level (ppm)
1,C#CCC1=C(C)C(OC(=O)[C@@H]2[C@@H](C=C(C)C)C2(C)C)CC1=O (stereo partly shown) [Prallethrin],0.2 ppm
2,CC1(C)C(C=C(Cl)Cl)C1C(=O)OC(C#N)c1ccc(F)c(Oc2ccccc2)c1 (stereo not shown) [Cyfluthrin],1 ppm
3,CCOC(=O)OC1=C(c2cc(C)ccc2C)C(=O)N[C@]12CC[C@@H](OC)CC2 [Spirotetramat],0.2 ppm
4,CN1COCN(Cc2cnc(Cl)s2)/C1=N\[N+](=O)[O-] [Thiamethoxam],0.2 ppm
5,N#C/N=C1\SCCN1Cc1ccc(Cl)nc1 [Thiacloprid],0.2 ppm
6,CNC(=O)c1cc(Cl)cc(C)c1NC(=O)c1cc(Br)nn1-c1ncccc1Cl [Chlorantraniliprole],0.2 ppm
7,CC(C)(C)C(O)(CCc1ccc(Cl)cc1)Cn1cncn1 (stereo not shown) [Tebuconazole],0.4 ppm
8,CC1C(c2ccc(Cl)cc2)SC(=O)N1C(=O)NC1CCCCC1 (stereo not shown) [Hexythiazox],1 ppm
9,N#Cc1nn(-c2c(Cl)cc(C(F)(F)F)cc2Cl)c(N)c1[S+]([O-])C(F)(F)F (stereo not shown) [Fipronil],0.4 ppm
10,O=[N+]([O-])NC1=NCCN1Cc1ccc(Cl)nc1 [Imidacloprid],0.4 ppm
11,C=CCOC(Cn1ccnc1)c1ccc(Cl)cc1Cl (stereo not shown) [Imazalil],0.2 ppm
12,CCCN(CC)CC1COC2(CCC(C(C)(C)C)CC2)O1 (stereo not shown) [Spiroxamine],0.4 ppm
13,CNC(=O)CSP(=S)(OC)OC [Dimethoate],0.2 ppm
14,CC(C)(C)c1ccc(CSc2cnn(C(C)(C)C)c(=O)c2Cl)cc1 [Pyridaben],0.2 ppm
15,Spinosad,0.2 ppm
16,Cc1cc(C)c(C2=C(OC(=O)CC(C)(C)C)C3(CCCC3)OC2=O)c(C)c1 [Spiromesifen],0.2 ppm
17,CNC(=O)Oc1cc(C)c(SC)c(C)c1 [Methiocarb],0.2 ppm
18,C/C(=N\C#N)N(C)Cc1ccc(Cl)nc1 [Acetamiprid],0.2 ppm
19,CCOc1cc(C(C)(C)C)ccc1C1COC(c2c(F)cccc2F)=N1 (stereo not shown) [Etoxazole],0.2 ppm
20,CNC(=O)ON=C(C)SC [Methomyl],0.4 ppm
21,"CO/N=C(/C(=O)OC)c1ccccc1COc1ccccc1C [Kresoxim-methyl, Kresoxim- methyl]",0.4 ppm
22,CCOC(=O)CC(SP(=S)(OC)OC)C(=O)OCC (stereo not shown) [Malathion],0.2 ppm
23,COP(=O)(NC(C)=O)SC (stereo not shown) [Acephate],0.4 ppm
24,COP(=S)(OC)SCN1C(=O)c2ccccc2C1=O [Phosmet],0.2 ppm
25,CCCC1COC(Cn2cncn2)(c2ccc(Cl)cc2Cl)O1 (stereo not shown) [Propiconazole],0.4 ppm

row,Molecule,Action Level (ppm)
1,N#CCNC(=O)c1cnccc1C(F)(F)F [Flonicamid],1 ppm
2,CCOP(=S)(OCC)Oc1cc(C)nc(C(C)C)n1 [Diazinon],0.2 ppm
3,Cc1nn(C)c(Oc2ccccc2)c1/C=N/OCc1ccc(C(=O)OC(C)(C)C)cc1 [Fenpyroximate],0.4 ppm
4,CCOc1ccc(C(C)(C)COCc2cccc(Oc3ccccc3)c2)cc1 [Etofenprox],0.4 ppm
5,O=C(Nc1ccccc1-c1ccc(Cl)cc1)c1cccnc1Cl [Boscalid],0.4 ppm
6,CCCCC(C#N)(Cn1cncn1)c1ccc(Cl)cc1 (stereo not shown) [Myclobutanil],0.2 ppm
7,CNC(=O)Oc1cccc2c1OC(C)(C)C2 [Carbofuran],0.2 ppm
8,CCCCCCCCCCCCC1=C(OC(C)=O)C(=O)c2ccccc2C1=O [Acequinocyl],2 ppm
9,CNC(=O)Oc1ccccc1OC(C)C [Propoxur],0.2 ppm
10,CO/N=C(/C(=O)OC)c1ccccc1CO/N=C(\C)c1cccc(C(F)(F)F)c1 [Trifloxystrobin],0.2 ppm
11,CCOCn1c(-c2ccc(Cl)cc2)c(C#N)c(Br)c1C(F)(F)F [Chlorfenapyr],1 ppm
12,CCOC(=O)NCCOc1ccc(Oc2ccccc2)cc1 [Fenoxycarb],0.2 ppm
13,COc1ccc(-c2ccccc2)cc1NNC(=O)OC(C)C [Bifenazate],0.2 ppm
14,COP(=O)(OC)OC=C(Cl)Cl [DDVP (Dichlorvos)],0.1 ppm
15,CNC(=O)O/N=C(\SC)C(=O)N(C)C [Oxamyl],1 ppm
16,CNC(=O)O/N=C/C(C)(C)SC [Aldicarb],0.4 ppm
17,CNC(=O)Oc1cccc2ccccc12 [Carbaryl],0.2 ppm
18,COP(=O)(OC)OC(Br)C(Cl)(Cl)Br (stereo not shown) [Naled],0.5 ppm
19,COCC(=O)N(c1c(C)cccc1C)C(C)C(=O)OC (stereo not shown) [Metalaxyl],0.2 ppm
20,Cc1c(COC(=O)[C@@H]2[C@H](/C=C(\Cl)C(F)(F)F)C2(C)C)cccc1-c1ccccc1 (racemic) [Bifenthrin],0.2 ppm
21,CC1(C)C(C=C(Cl)Cl)C1C(=O)OCc1cccc(Oc2ccccc2)c1 (stereo not shown) [Permethrins],0.2 ppm
22,N#Cc1c[nH]cc1-c1cccc2c1OC(F)(F)O2 [Fludioxonil],0.4 ppm
23,Abamectin,0.5 ppm
24,CCCCC(CC)CN1C(=O)C2C3C=CC(C3)C2C1=O (stereo not shown) [MGK-264],0.2 ppm

# Tested on: not given
# Settings: not given
row,Molecule,Water Soluble?
1,C=C(C)[C@@H]1CCC(C)=C[C@H]1c1c(O)cc(CCC)cc1O [Cannabidivarin],No
2,CCCCCc1cc(O)c(C/C=C(\C)CCC=C(C)C)c(O)c1 [Cannabigerol],No

# Tested on: humans
# Settings: not given
row,Molecule,toxicity to humans
1,CCCCOCCOCCOCc1cc2c(cc1CCC)OCO2 [Piperonyl butoxide],non-toxic
